Results published in patent US20250228818A1, “PHARMACEUTICAL COMBINATION CONTAINING CAPSID PROTEIN INHIBITOR AND REVERSE TRANSCRIPTASE INHIBITOR” (priority 2021, published 2025).

Test system: rAAV8-1.3HBV
Assay: AAV/HBV mouse model experiment (serum HBV DNA)
Type: in vivo, mouse (male, C57BL/6)
Settings: mean ± standard error; for HBV DNA in mouse serum, day 7 / HBV DNA in mouse serum, day 14 / HBV DNA in mouse serum, day 21 / HBV DNA in mouse serum, day 28: i.g. QD day 0-27; for HBV DNA in mouse serum, day −2: day −2 (before first administration)
Method: rAAV8-1.3HBV (source: Beijing FivePlus Molecular Medicine Institute, titer: 1×10^12 v·g/mL) was used to establish an AAV/HBV mouse model (species: male, C57BL/6), and the mice were randomized into groups.
The compound of formula I was dissolved in DMSO, and PEG-400 was added to prepare a 1 mg/mL clear solution, which was then gradually diluted with the vehicle to 0.3 mg/mL, 0.1 mg/mL, and 0.03 mg/mL. After preparation, the dilutions were stored at room temperature.
Entecavir was dissolved in DMSO to prepare a 1 mg/mL solution, which was then gradually 1000-fold diluted with normal saline (NS) to 0.001 mg/mL. The dilution was aliquoted at 1 mL/tube to serve as a stock solution and stored in a freezer at −20° C. Each day, one tube was taken, and the solution in the tube was 10-fold diluted with NS to achieve the required administration concentration of 0.0001 mg/mL for daily administration.
rAAV8-1.3HBV (type D, ayw) was purchased from Beijing FivePlus Gene Technology Co., Ltd., with a titer of 1×10^12 v·g/mL.
Hepatitis B virus nucleic acid assay kit (Sansure Biotech Inc.), high-speed refrigerated centrifuge (Sorvall Legend), and real-time fluorescent quantitative PCR instrument (TL988).
AAV-HBV mouse model: rAAV8-1.3HBV was prepared into a solution with a concentration of 5×10^11 v·g/mL by sterile PBS in advance before injection. Each mouse was injected with 200 μL of the solution via the tail vein, with 1×10^11 v·g per mouse.
Blood sampling before grouping: On day 14 after the virus injection, all infected mice were subjected to blood sampling (approximately 100 μL per mouse) via the orbital vein for serum collection. After the whole blood was left to stand at room temperature for 30 min, serum was collected by centrifugation at 3000 rpm at 4° C. for 10 min. The collected serum was stored at −80° C. for HBV DNA, HBeAg and HBsAg detection.
Compound treatment: All mice were subjected to intragastric administration with the solvent or the compound. The day of the first administration was set as day 0 of the experiment, and the duration of administration was from day 0 to day 27. Entecavir was administered once daily (QD), and the compound of formula I was administered […]. The administration volume was 10 mL/kg.
The experimental method referred to the instructions of the hepatitis B virus nucleic acid assay kit. 5 μL of the nucleic acid release agent was added into each PCR reaction tube, and then 5 μL of the test serum, a negative control, a positive control and a quantitative reference substance were added separately. The mixture was then lysed for 10 min, and then 40 μL of PCR-mix was added, achieving a total volume of 50 μL in the system. Reaction conditions: 50° C. for 2 min, 1 cycle; 94° C. for 5 min, 1 cycle; 94° C. for 15 s, 57° C. for 30 s, 45 cycles; 25° C. for 10 s, 1 cycle. 2.4. Results in Tables 4-1 and 4-2

[1] = compound of formula I 10 mg/kg (iv), with entecavir 0.001 mg/kg (vi)
[2] = entecavir 0.001 mg/kg (ii), compound of formula I 1 mg/kg (iii), both (v)
[3] = groups: entecavir 0.001 mg/kg (ii), compound of formula I 1 mg/kg (iii), both (v)

SMILES: Cc1c(C(=O)Nc2ccc(F)c(C#N)c2)c(C)n(C)c1C(=O)C(=O)N[C@@H](C)C(F)(F)F [Compound of formula I, (S)—N-(3-cyano-4-fluorophenyl)-1,2,4-trimethyl-5-(2-oxo-2-((1,1,1-trifluoropropan-2-yl)amino)acetyl)-1H-pyrrole-3-carboxamide]
- HBV DNA in mouse serum, day 7 [1]: 4.72 ± 0.86 log10, copy/μL
- HBV DNA in mouse serum, day 7 [2]: 6.16 ± 0.36 log10, copy/μL
- HBV DNA in mouse serum, day 14 [1]: 3.97 ± 0.45 log10, copy/μL
- HBV DNA in mouse serum, day 14 [2]: 5.48 ± 0.34 log10, copy/μL
- HBV DNA in mouse serum, day 21 [1]: 3.97 ± 0.31 log10, copy/μL
- HBV DNA in mouse serum, day 21 [2]: 5.23 ± 0.33 log10, copy/μL
- HBV DNA in mouse serum, day 28 [1]: 3.75 ± 0.35 log10, copy/μL
- HBV DNA in mouse serum, day 28 [2]: 5.42 ± 0.38 log10, copy/μL
- HBV DNA in mouse serum, day 35 (day 35 (administration ended day 27), compound of formula I 10 mg/kg (iv), with entecavir 0.001 mg/kg (vi)): 3.77 ± 0.45 log10, copy/μL
- HBV DNA in mouse serum, day 42 (day 42 (administration ended day 27), compound of formula I 10 mg/kg (iv), with entecavir 0.001 mg/kg (vi)): 5.18 ± 0.74 log10, copy/μL
- HBV DNA in mouse serum, day −2 (groups: compound of formula I 10 mg/kg (iv), with entecavir 0.001 mg/kg (vi)): 7.97 ± 0.22 log10, copy/μL
- HBV DNA in mouse serum, day −2 [3]: 7.71 ± 0.27 log10, copy/μL

SMILES: C=C1[C@H](CO)[C@@H](O)C[C@@H]1n1cnc2c(=O)[nH]c(N)nc21 [Entecavir, 2-amino-9-[(1S,3R,4S)-4-hydroxy-3-hydroxymethyl-2-methylenecyclopentyl]-1,9-dihydro-6H-purin-6-one, reference compound]
- HBV DNA in mouse serum, day 7 [2]: 5.17 ± 0.54 log10, copy/μL
- HBV DNA in mouse serum, day 14 [2]: 5.30 ± 0.30 log10, copy/μL
- HBV DNA in mouse serum, day 21 [2]: 5.22 ± 0.46 log10, copy/μL
- HBV DNA in mouse serum, day 28 [2]: 5.46 ± 0.45 log10, copy/μL
- HBV DNA in mouse serum, day −2 [3]: 7.78 ± 0.28 log10, copy/μL
